{"source": "patent US20250325497A1", "about": "“OPHTHALMIC COMPOSITION COMPRISING RESVERATROL FOR TREATING DRY EYE SYNDROME” (Laboratoires THEA, priority 2022, published 2025)", "tested_on": "reconstituted Human Corneal Epithelium (HCE)", "assay": "Preliminary cytotoxicity: modified MTT viability test on reconstituted HCE", "assay_type": "cell-based", "details": "for MTT: Cellular viability (%): relative to negative control", "description": "An initial study on human corneal epithelium (HCE) was conducted to check the cytotoxicity of a selection of tear substitutes in order to further assess their protection against superficial corneal epithelium oxidative stress damages induced by UVA+B light (290-400 nm).\nThe preliminary cytotoxicity was performed after 4 h acute exposure and after 8 h exposure (repeated twice a day with the final readout the day after; 0.015 J/cm^2) to tear substitutes using 2 assays: MTT test and TUNEL assay.\nThe preliminary cytotoxicity was tested in vitro for the following tear substitutes: • Composition according to Example I • Visu XL (market reference containing 0.1% Coenzyme Q10, 0.1% cross-linked hyaluronic acid (HA), 0.5% Vitamin E TPGS; pH 6.9) on the HCE model compared to Benzalkonium Chloride (BAK) 0.1% solution (positive control) and saline solution (NaCl 0.9%; negative control).\nAn EPISKIN reconstituted Human Corneal Epithelium (HCE) of 0.5 cm^2 was used for the evaluation. Epithelial human Immortalized cells (HICEC) were deposed on a polycarbonate filter and cultured at the air-liquid interface for 5 days in a chemically defined medium in order to form a structured epithelium. The inserts containing the tissues at day 5 (thickness: 55 μm; 5.5 cell layers) were shipped at room temperature in a multi-well plate filled with an agarose nutrient solution in which they were embedded.\nThe HCEs were placed in 6 well plates with 1 mL maintenance medium overnight in incubator CO2 at 37° C. and 90% humidity. The tissues were then used the day after, following acute 4 h exposure and 8 h repeated exposure and overnight protocol. […]\nTwo exposure protocols were carried on: • acute exposure protocol (4 h): 4 h exposure followed by tissues rinsing • repeated exposure and overnight protocol (8 h+overnight): twice daily exposure, with at least 4 hours between the two treatments and readout after overnight incubation. […]\nThe Accuracy of the spectro-photometrical measurements are in the range between 0 and 2 OD: <+/−(1%+10 mOD). The Raw data of OD are directly recorded in the Microplate autoreader (TECAN INFINITE M-200) further processed by Software Magellan 6.5.\nThe mean of blank OD has been subtracted to every single OD value. The viability of each biological replicate has been calculated dividing the respective OD mean for the optical density average of the negative control (NC) Biological Replicates. The viability % mean of tissues treated with the same substance has been calculated. […]\nTest substance meets the acceptance criteria if the Standard Deviation value (SD) of the cell viability % (expressed as percentage compared to NC) between the 2 tissue replicates is <18%."}
{"substance": "Benzalkonium Chloride [BAK 0.1%]", "values": [{"measurement": "MTT: Cellular viability (%)", "setting": "4 H acute exposure", "result": 9.98, "unit": "%"}, {"measurement": "MTT: Cellular viability (%)", "setting": "8 H+ OVERNIGHT repeated exposure", "result": 0.95, "unit": "%"}, {"measurement": "Cytotoxicity by MTT test (in words)", "setting": "4 h acute exposure", "result": "severe cytotoxicity"}, {"measurement": "Cytotoxicity by MTT test (in words)", "setting": "8 h followed by overnight incubation, cut-off 60% cell viability", "result": "severe cytotoxicity"}]}
